Test results taken from US4101556A, “Total synthesis of 2,5-dideoxystreptamines” (Bristol-Myers Company, priority 1977, dated 1978).
Values after ≈ are worked out from the molar mass of the structure shown. Blank lines part the entries; values can stand above or below the compound they belong to.

Columns and labels:
S. pneum. 9585 = test: Minimum Inhibitory Concentration against S. pneum. 9585; format: cell-based; conditions: Mueller-Hinton Broth, 10^-4 organism dilution, read-out: M.I.C. (Minimum Inhibitory Concentration)
Text: (§1) Minimum Inhibitory Concentration Of
(§2) 5-deoxykanamycin A Against Various
(§3) Microorganisms (mcg./ml.)
(§4) ^a = 45% Antibiotic Assay Broth, 50% Mueller-Hinton Broth and 5%
(§5) serum. All others are Mueller-Hinton Broth.
(§6) ^b = 10^-3 Organism dilution. All others are 10^-4 organism

S. pyogenes 9604 = test: Minimum Inhibitory Concentration against S. pyogenes 9604; format: cell-based; conditions: Streptococcus pyogenes, 45% Antibiotic Assay Broth, 50% Mueller-Hinton Broth and 5% serum, 10^-3 organism dilution, read-out: M.I.C. (Minimum Inhibitory Concentration)
Text: as §1, §2, §3, §4, §5, §6

S. aureus 9537 = test: Minimum Inhibitory Concentration against S. aureus 9537; format: cell-based; conditions: Staphylococcus aureus, Mueller-Hinton Broth, 10^-4 organism dilution, read-out: M.I.C. (Minimum Inhibitory Concentration)
Text: as §1, §2, §3, §4, §5, §6

S. aureus 9606 = test: Minimum Inhibitory Concentration against S. aureus 9606; format: cell-based; conditions: Staphylococcus aureus, Mueller-Hinton Broth, 10^-4 organism dilution, read-out: M.I.C. (Minimum Inhibitory Concentration)
Text: as §1, §2, §3, §4, §5, §6

S. aureus 20240 = test: Minimum Inhibitory Concentration against S. aureus 20240; format: cell-based; conditions: Staphylococcus aureus, Mueller-Hinton Broth, 10^-4 organism dilution, read-out: M.I.C. (Minimum Inhibitory Concentration)
Text: as §1, §2, §3, §4, §5, §6

E. coli 9632 = test: Minimum Inhibitory Concentration against E. coli 9632; format: cell-based; conditions: Escherichia coli, Mueller-Hinton Broth, 10^-3 organism dilution, read-out: M.I.C. (Minimum Inhibitory Concentration)
Text: as §1, §2, §3, §4, §5, §6

E. coli 21218 = test: Minimum Inhibitory Concentration against E. coli 21218; format: cell-based; conditions: Escherichia coli, Mueller-Hinton Broth, 10^-3 organism dilution, read-out: M.I.C. (Minimum Inhibitory Concentration)
Text: as §1, §2, §3, §4, §5, §6

E. coli 20895 = test: Minimum Inhibitory Concentration against E. coli 20895; format: cell-based; conditions: Escherichia coli, Mueller-Hinton Broth, 10^-3 organism dilution, read-out: M.I.C. (Minimum Inhibitory Concentration)
Text: as §1, §2, §3, §4, §5, §6

E. coli 20732 = test: Minimum Inhibitory Concentration against E. coli 20732; format: cell-based; conditions: Escherichia coli, Mueller-Hinton Broth, 10^-3 organism dilution, read-out: M.I.C. (Minimum Inhibitory Concentration)
Text: as §1, §2, §3, §4, §5, §6

E. coli 20665 = test: Minimum Inhibitory Concentration against E. coli 20665; format: cell-based; conditions: Escherichia coli, Mueller-Hinton Broth, 10^-3 organism dilution, read-out: M.I.C. (Minimum Inhibitory Concentration)
Text: as §1, §2, §3, §4, §5, §6

E. coli 20683 = test: Minimum Inhibitory Concentration against E. coli 20683; format: cell-based; conditions: Escherichia coli, Mueller-Hinton Broth, 10^-3 organism dilution, read-out: M.I.C. (Minimum Inhibitory Concentration)
Text: as §1, §2, §3, §4, §5, §6

E. cloacae 9656 = test: Minimum Inhibitory Concentration against E. cloacae 9656; format: cell-based; conditions: Enterobacter cloacae, Mueller-Hinton Broth, 10^-4 organism dilution, read-out: M.I.C. (Minimum Inhibitory Concentration)
Text: as §1, §2, §3, §4, §5, §6

E. cloacae 20364 = test: Minimum Inhibitory Concentration against E. cloacae 20364; format: cell-based; conditions: Enterobacter cloacae, Mueller-Hinton Broth, 10^-3 organism dilution, read-out: M.I.C. (Minimum Inhibitory Concentration)
Text: as §1, §2, §3, §4, §5, §6

E. cloacae 21006 = test: Minimum Inhibitory Concentration against E. cloacae 21006; format: cell-based; conditions: Enterobacter cloacae, Mueller-Hinton Broth, 10^-3 organism dilution, read-out: M.I.C. (Minimum Inhibitory Concentration)
Text: as §1, §2, §3, §4, §5, §6

K. pneum. 9977 = test: Minimum Inhibitory Concentration against K. pneum. 9977; format: cell-based; conditions: Mueller-Hinton Broth, 10^-4 organism dilution, read-out: M.I.C. (Minimum Inhibitory Concentration)
Text: as §1, §2, §3, §4, §5, §6

P. mirab. 9900 = test: Minimum Inhibitory Concentration against P. mirab. 9900; format: cell-based; conditions: Mueller-Hinton Broth, 10^-4 organism dilution, read-out: M.I.C. (Minimum Inhibitory Concentration)
Text: as §1, §2, §3, §4, §5, §6

P. rettgeri 9637 = test: Minimum Inhibitory Concentration against P. rettgeri 9637; format: cell-based; conditions: Providencia rettgeri, Mueller-Hinton Broth, 10^-4 organism dilution, read-out: M.I.C. (Minimum Inhibitory Concentration)
Text: as §1, §2, §3, §4, §5, §6

P. rettgeri 21207 = test: Minimum Inhibitory Concentration against P. rettgeri 21207; format: cell-based; conditions: Providencia rettgeri, Mueller-Hinton Broth, 10^-3 organism dilution, read-out: M.I.C. (Minimum Inhibitory Concentration)
Text: as §1, §2, §3, §4, §5, §6

P. stuartii 21210 = test: Minimum Inhibitory Concentration against P. stuartii 21210; format: cell-based; conditions: Providencia stuartii, Mueller-Hinton Broth, 10^-4 organism dilution, read-out: M.I.C. (Minimum Inhibitory Concentration)
Text: as §1, §2, §3, §4, §5, §6

P. stuartii 20894 = test: Minimum Inhibitory Concentration against P. stuartii 20894; format: cell-based; conditions: Providencia stuartii, Mueller-Hinton Broth, 10^-3 organism dilution, read-out: M.I.C. (Minimum Inhibitory Concentration)
Text: as §1, §2, §3, §4, §5, §6

S. marc. 20019 = test: Minimum Inhibitory Concentration against S. marc. 20019; format: cell-based; conditions: Mueller-Hinton Broth, 10^-4 organism dilution, read-out: M.I.C. (Minimum Inhibitory Concentration)
Text: as §1, §2, §3, §4, §5, §6

S. marc. 20460 = test: Minimum Inhibitory Concentration against S. marc. 20460; format: cell-based; conditions: Mueller-Hinton Broth, 10^-4 organism dilution, read-out: M.I.C. (Minimum Inhibitory Concentration)
Text: as §1, §2, §3, §4, §5, §6

P. aerug. 9843A = test: Minimum Inhibitory Concentration against P. aerug. 9843A; format: cell-based; conditions: Mueller-Hinton Broth, 10^-4 organism dilution, read-out: M.I.C. (Minimum Inhibitory Concentration)
Text: as §1, §2, §3, §4, §5, §6

P. aerug. 20653 = test: Minimum Inhibitory Concentration against P. aerug. 20653; format: cell-based; conditions: Mueller-Hinton Broth, 10^-4 organism dilution, read-out: M.I.C. (Minimum Inhibitory Concentration)
Text: as §1, §2, §3, §4, §5, §6

P. aerug. 20741 = test: Minimum Inhibitory Concentration against P. aerug. 20741; format: cell-based; conditions: Mueller-Hinton Broth, 10^-4 organism dilution, read-out: M.I.C. (Minimum Inhibitory Concentration)
Text: as §1, §2, §3, §4, §5, §6

P. aerug. 20717 = test: Minimum Inhibitory Concentration against P. aerug. 20717; format: cell-based; conditions: Mueller-Hinton Broth, 10^-4 organism dilution, read-out: M.I.C. (Minimum Inhibitory Concentration)
Text: as §1, §2, §3, §4, §5, §6

P. aerug. 20601 = test: Minimum Inhibitory Concentration against P. aerug. 20601; format: cell-based; conditions: Mueller-Hinton Broth, 10^-4 organism dilution, read-out: M.I.C. (Minimum Inhibitory Concentration)
Text: as §1, §2, §3, §4, §5, §6

P. aerug. 21509 = test: Minimum Inhibitory Concentration against P. aerug. 21509; format: cell-based; conditions: Mueller-Hinton Broth, 10^-4 organism dilution, read-out: M.I.C. (Minimum Inhibitory Concentration)
Text: as §1, §2, §3, §4, §5, §6

[1] = background statement on positional isomers; cited from earlier work

MIC (S. pneum. 9585): 125 µg/mL (≈ 267 µM)
MIC (S. pyogenes 9604): 125 µg/mL (≈ 267 µM)
MIC (S. aureus 9537): 2 µg/mL (≈ 4.27 µM)
MIC (S. aureus 9606): 4 µg/mL (≈ 8.54 µM)
MIC (S. aureus 20240): > 125 µg/mL
MIC (E. coli 9632): 8 µg/mL (≈ 17.1 µM)
MIC (E. coli 21218): > 125 µg/mL
MIC (E. coli 20895): 8 µg/mL (≈ 17.1 µM)
MIC (E. coli 20732): 125 µg/mL (≈ 267 µM)
MIC (E. coli 20665): > 125 µg/mL
MIC (E. coli 20683): > 125 µg/mL
MIC (E. cloacae 9656): 8 µg/mL (≈ 17.1 µM)
MIC (E. cloacae 20364): > 125 µg/mL
MIC (E. cloacae 21006): > 125 µg/mL
MIC (K. pneum. 9977): 1 µg/mL (≈ 2.13 µM)
MIC (P. mirab. 9900): 32 µg/mL (≈ 68.3 µM)
MIC (P. rettgeri 9637): 1 µg/mL (≈ 2.13 µM)
MIC (P. rettgeri 21207): 16 µg/mL (≈ 34.2 µM)
MIC (P. stuartii 21210): 4 µg/mL (≈ 8.54 µM)
MIC (P. stuartii 20894): 32 µg/mL (≈ 68.3 µM)
MIC (S. marc. 20019): 32 µg/mL (≈ 68.3 µM)
MIC (S. marc. 20460): > 125 µg/mL
MIC (P. aerug. 9843A): > 125 µg/mL
MIC (P. aerug. 20653): > 125 µg/mL
MIC (P. aerug. 20741): > 125 µg/mL
MIC (P. aerug. 20717): > 125 µg/mL
MIC (P. aerug. 20601): > 125 µg/mL
MIC (P. aerug. 21509): > 125 µg/mL
SMILES: NC[C@H]1O[C@H](O[C@H]2C[C@@H](O[C@H]3O[C@H](CO)[C@@H](O)[C@H](N)[C@H]3O)[C@H](N)C[C@@H]2N)[C@H](O)[C@@H](O)[C@@H]1O [5-deoxykanamycin A, 5-Deoxykanamycin A]

SMILES: NC[C@H]1O[C@H](O[C@H]2[C@H](O)[C@@H](O)[C@H](N)C[C@@H]2N)[C@H](N)[C@@H](O)[C@@H]1O [neamine, 4-0-(2,6-dideoxy-2,6-diamino-α-D-glycopynanosyl) 2-deoxystreptamine]
antibiotic activity [1]: biologically active
